Experiment [1] deals with T1, Keap1 (A321-C624) (h) (Homo sapiens, UniProt Q14145).
T1 construct: His-Thromb-KEAP1(A321-C624) acquired from Novalix (batch PU-P01) was immobilized covalently by amine coupling; His tag (N); thrombin cleavage site (Thromb) (N); purchased Novalix batch PU-P01
Kind of experiment: Surface Plasmon Resonance binding assay to Kelch domain of KEAP1. As to conditions: Biacore T200, 25° C., immobilized His-Thromb-KEAP1(A321-C624), single cycle kinetics, KD=kd/ka from 1:1 fit; read-out: Keap1 (A321-C624) (h) direct/SPR (KD). Summed up:
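His-Thromb-KEAP1(A321-C624) amine-coupled on CM5 chip to 1250 RU; amine blank reference. Run at 25° C in HEPES pH 7.4, 150 mM NaCl, 3 mM EDTA, 1 mM TCEP, 0.05% P20, 5% DMSO; 180 s association, 720 s dissociation, 50 μL/min. KD = kd/ka from 1:1 kinetic fit, double-referenced, DMSO solvent-corrected.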
Background: Surface plasmon resonance follows binding to a sensor surface in real time, without labels.

The test system of experiment [2] is Nrf2 (Keap1-NRF2 nuclear translocation). Kind of experiment: U2OS translocation assay (PathHunter U2OS Keap1-NRF2 Nuclear Translocation Cell Line). It is filed as cell-based. As to conditions: Homo sapiens, U2OS, 3 h, read-out: CELLULAR U2OS EC50 (nM), U2OS Keap1-NRF2 nuclear translocation cells, 3 h incubation, luminescence, normalized between 1% DMSO and 10 μM andrographolide. In a few lines:
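Enzyme-fragment complementation read-out: luminescence after 60 min of detection reagent at room temperature, following a 3 h, 37° C compound exposure of engineered U2OS Keap1-NRF2 translocation cells (1% FBS medium). Signal scaled from 1% DMSO basal to 10 μM andrographolide maximum.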

T1 sequence (Q14145 321-624): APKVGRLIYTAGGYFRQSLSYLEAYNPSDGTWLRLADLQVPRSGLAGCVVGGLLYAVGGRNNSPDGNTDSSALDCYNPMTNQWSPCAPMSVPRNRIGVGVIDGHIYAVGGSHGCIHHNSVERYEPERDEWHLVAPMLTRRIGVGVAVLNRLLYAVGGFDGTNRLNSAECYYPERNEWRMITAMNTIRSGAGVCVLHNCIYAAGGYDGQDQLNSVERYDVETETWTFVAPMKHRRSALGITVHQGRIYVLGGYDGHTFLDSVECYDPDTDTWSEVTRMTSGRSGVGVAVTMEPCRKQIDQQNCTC

For the compound `Cc1ccc2cc1CN1Cc3c(ccc(c3Cl)OCCCCn3nnc4c(C)c(cc(Cl)c43)[C@@H]2CC(=O)O)OS1(=O)=O` [Example 51, [(8R)-11,30-Dichloro-4,31-dimethyl-27,27-dioxo-21,26-dioxa-27λ^6-thia-1,14,15,16-tetraazahexacyclo[20.5.3.1^3,70.1^9,130.0^12,160.0^25,29]dotriaconta-3(32),4,6,9(31),10,12,14,22,24,29-decaen-8-yl]acetic acid], the Kd in experiment [1] was 2.03 nM. For the same compound, the concentration giving a half-maximal response (EC50) in experiment [2] is 103 nM.

Take `Cc1ccc2cc1CN1Cc3cc(c(Cl)cc3OS1(=O)=O)OCCCCn1nnc3c(C)c(cc(Cl)c31)[C@@H]2CC(=O)O` [Example 52, [(8R)-11,23-Dichloro-4,31-dimethyl-27,27-dioxo-21,26-dioxa-27λ^6-thia-1,14,15,16-tetraazahexacyclo[20.5.3.1^3,70.1^9,130.0^12,160.0^25,29]dotriaconta-3(32),4,6,9(31),10,12,14,22,24,29-decaen-8-yl]acetic acid]: the Kd in experiment [1] was 8.86 nM. Also, the concentration giving a half-maximal response (EC50) in experiment [2] came to 180 nM.

Regarding `[2H]C([2H])(C(=O)O)[C@@H]1c2ccc(C)c(c2)CN2Cc3cc(ccc3OS2(=O)=O)OCCCCn2nnc3c(C)c1ccc32` [Example 55a, [(8R)-4,31-Dimethyl-27,27-dioxo-21,26-dioxa-27λ^6-thia-1,14,15,16-tetraazahexacyclo[20.5.3.1^3,70.1^9,130.0^12,160.0^25,29]dotriaconta-3(32),4,6,9(31),10,12,14,22,24,29-decaen-8-yl](^2H2)acetic acid], in experiment [1], the Kd stood at 2 nM. Also, the EC50 in experiment [2] was 183 nM.

For the compound `[2H]C([2H])(C(=O)O)[C@H]1c2ccc(C)c(c2)CN2Cc3cc(ccc3OS2(=O)=O)OCCCCn2nnc3c(C)c1ccc32` [Example 55b, [(8S)-4,31-Dimethyl-27,27-dioxo-21,26-dioxa-27λ^6-thia-1,14,15,16-tetraazahexacyclo[20.5.3.1^3,70.1^9,130.0^12,160.0^25,29]dotriaconta-3(32),4,6,9(31),10,12,14,22,24,29-decaen-8-yl](^2H2)acetic acid], the Kd in experiment [1] is 2.5 nM. The EC50 in experiment [2] stood at 15.8 nM.

As for `Cc1c2ccc3c1nnn3CCCCOc1ccc3c(c1)CN([C@H](C)c1cc(ccc1Cl)[C@@H]2CC(=O)O)S(=O)(=O)O3` [Example 64a, [(2R,8S)-4-chloro-2,31-dimethyl-27,27-dioxo-21,26-dioxa-27λ^6-thia-1,14,15,16-tetraazahexacyclo[20.5.3.1^3,70.1^9,130.0^12,160.0^25,29]dotriaconta-3(32),4,6,9(31),10,12,14,22,24,29-decaen-8-yl]acetic acid], in experiment [1], the Kd was 0.195 nM. Besides, in experiment [2], the EC50 was found to be 24 nM.

With `Cc1ccc2cc1[C@@H](C)N1Cc3cc(ccc3OS1(=O)=O)OCCC1(CCOCC1)Cn1nnc3c(C)c(ccc31)C2CC(=O)O` (stereo partly drawn) [Example 68, [(2R)-2,4,31-Trimethyl-27,27-dioxo-27λ^6-spiro[21,26-dioxa-27-thia-1,14,15,16-tetraazahexacyclo[20.5.3.1^3,70.1^9,130.0^12,160.0^25,29]dotriaconta-3(32),4,6,9(31),10,12,14,22,24,29-decaene-18,4′-oxan]-8-yl]acetic acid], in experiment [1], the Kd turned out to be 8.96 nM. Further, the concentration giving a half-maximal response (EC50) in experiment [2] turned out to be 38.3 nM.

By EC50 is commonly meant the concentration giving half of the maximal effect.
